Results as given in patent US6603046B1, “Bis-aromatic a,β-unsaturated ketones” (Lica Pharmaceuticals A/S, priority 1992, dated 2003).
In brackets after ≈: the same amount, converted by molar mass. Read-outs that look alike come from different tables or passages of the source. Marks after values point to notes of the source that are not given here.

Key:
[1] = system: Sarcina lutea; test: MIC, macrodilution (Example 17); assay type: cell-based; details: Micrococcus luteus; 1 strain
[2] = Absorption study in rats, oral, serum concentration (Example 20); assay type: in vivo
Method: The absorption pattern and pharmaco-kinetics of licochalcone A in rats given by oral route were determined compared with pharmacokinetics of licochalcone A in rats given intravenously.
Number of rats: 4 for each group […]
Route: Oral, adminitered once.
Sample: 2 ml of blood was drawn 4 times from each rat.
Serum or plasma was diluted with one part of acetonitrile, left for 15 min at 4° C., and centrifugated for 3 min at 10,000 g. An aliquot of the supernatant was chromatographed at 37° C. by HPLC over Spherisorb ODS-2 (5 μm, 120×4.5 mm, Phase Separation LTD, UK) using acetonitrile aqueous acetic acid, 2%, (1:1) as an eluent, flow rate 1.5 ml/min, and UV detection (370 nm and 254 nm).

[3] = system: Corynebacterium species; test: microbe, parasite or virus in culture; assay type: cell-based
[4] = Reaction with N-acetyl-L-cysteine, HPLC (Example 26); assay type: physicochemical; details: 7 days
Method: Formation of N-acetyl-L-cysteine conjugates of licochalcone A. A solution of 1.5 mg of licochalcone A and 100 mg of N-acetyl-L-cysteine in acetonitrile0.13 M aqueous potassium phosphate buffer solution pH 7.5 (1:3) was left for 7 days at ambient temperature protected from light.

[5] = system: human lymphocytes, neutrophils, and monocytes; test: Trypan blue dye exclusion method; assay type: cell-based; details: 20 μg/ml
Method: Trypan blue dye exclusion method. This is a standard method used to determine cell viability. The assay is performed by incubating a given cell suspension with trypan blue for various periods of time after which the cells are examined under microscope. Dead cells will take up the dye and therefore show a blue colour. Percent viability is determined by counting at least a total of 200 cells.

[6] = system: M. bovis; assay type: cell-based; details: n = 8
[7] = system: Eimeria tenella; test: Anticoccidial activity in chickens infected with Eimeria tenella (Example 28); assay type: in vivo
[8] = Reaction with glutathione, HPLC (Example 26); assay type: physicochemical; details: acetonitrile-phosphate buffer (1:3), 7 days, ambient temperature
Method: Formation of glutathione conjugates of licochalcone A. A solution of 1.5 mg of licochalcone A and 100 mg of glutathione in acetonitrile-0.13 M aqueous potassium phosphate buffer solution pH 75 (1:3) was left for 7 days at ambient temperature protected from light.

[9] = system: chloroquine resistant P. falciparum DD2 strain; test: In vitro growth of P. falciparum DD2, 3H-hypoxanthine uptake (Example 15); assay type: cell-based, Plasmodium falciparum; details: for Growth in % of control (mean ± SEM): title: percentage inhibition of 3H-hypoxanthine uptake
[10] = amount of feed consumed per kg chicken weight gain, doses as Table 28.1
[11] = in feed: salinomycin 70 ppm, 2,5 m4′ac and 2,4 mc 30 mg/kg/day, licochalcone A 10 mg/kg/day

C=CC(C)(C)c1cc(/C=C/C(=O)c2ccc(O)cc2)c(OC)cc1O [Licochalcone A, licochalcone A]
MIC [1]: 4 µg/mL (≈ 11.8 µM)
concentration in serum ([2]; 4 hours after oral administration, 1000 mg per kg as printed): 160 ng/mL
concentration at 24 h ([2]; rat, serum, oral, 1000 mg per kg, after 24 hours, detection limit of the assay): < 50 ng/mL
concentration at 4 h ([2]; rat, serum, po, 1000 mg per kg, 4 hours after oral administration, 1000 mg per kg as printed): 140 ng/mL
MIC [3]: 0.3 to 4 µg/mL (≈ 0.887 to 11.8 µM)
MIC ([3]; read-out: MIC of one very sensitive corynebacterium species): 0.3 µg/mL
stability in buffer without N-acetyl-L-cysteine [4]: No similar decrease
reaction with N-acetyl-L-cysteine ([4]; acetonitrile-phosphate buffer pH 7.5 (1:3), ambient temperature): decreased amounts of licochalcone A and appearance of two new peaks
toxic effect, trypan blue dye exclusion [5]: no toxic effect
meanMIC [6]: meanMIC = 15.7 μg/ml
rangeMIC [6]: rangeMIC = 10-20 μg/ml (n = 8)
percentages of chickens showing pathological signs versus infected control group ([7]; 10 mg/kg/day in feed): much lower
feed consumption after 7 days of treatment [7, 10]: 1.26
feed consumption after 14 days of treatment [7, 10]: 1.31
Weight gain in 7 days after initiation of treatment [7, 11]: 414 grams per chicken
Weight gain in 14 days after initiation of treatment [7, 11]: 864^b grams per chicken
Difference in weight gain to group 5 (control infected) after treatment for 14 days ([7]; normal variation ±2%): ^bDifference between groups 4 (licochalcone A) and 5 (control infected) after treatment for 14 days is 7.6%.
Mortality ([7]; number of chickens, groups of 35, licochalcone A 20): 0
reaction with glutathione [8]: decreased amounts of licochalcone A and appearance of two new peaks
IC50 ([9]; Plasmodium falciparum, DD2, read-out: concentration in which parasite growth was retarded by 50%): 0.5 to 1 µg/mL (≈ 1.48 to 2.96 µM)
Growth in % of control (mean ± SEM) ([9]; 0.1 μg/ml): 5.0 ± 2.0%
Growth in % of control (mean ± SEM) ([9]; 0.5 μg/ml): 41.0 ± 4.0%
Growth in % of control (mean ± SEM) ([9]; 1 μg/ml): 66.0 ± 3.0%
Growth in % of control (mean ± SEM) ([9]; 5 μg/ml): 98.0 ± 1.0%
Growth in % of control (mean ± SEM) ([9]; 10 μg/ml): 99.0 ± 0.0001%
